Results as given in ChEMBL document CHEMBL4402589, “Discovery of a Potent and Selective NF-κB-Inducing Kinase (NIK) Inhibitor That Has Anti-inflammatory Effects in Vitro and in Vivo” (J Med Chem, 2020).
Values belong to the compound of their own block, whether it stands above or below them. Activity calls are given as the source filed them. The calls are words filed in the database; no cut-off is given here.

What was measured:
[1] = target: T1, Mitogen-activated protein kinase kinase kinase 14 (Homo sapiens, UniProt Q99558); test: Inhibition of recombinant human N-terminal GST-tagged NIK (318 to 947 residues) expressed in baculovirus infected Sf9 cells using ultrapure ATP as substrate measured after 1 hr by ADP-glo assay
T1 sequence (Q99558 whole entry, the tested form may be a part): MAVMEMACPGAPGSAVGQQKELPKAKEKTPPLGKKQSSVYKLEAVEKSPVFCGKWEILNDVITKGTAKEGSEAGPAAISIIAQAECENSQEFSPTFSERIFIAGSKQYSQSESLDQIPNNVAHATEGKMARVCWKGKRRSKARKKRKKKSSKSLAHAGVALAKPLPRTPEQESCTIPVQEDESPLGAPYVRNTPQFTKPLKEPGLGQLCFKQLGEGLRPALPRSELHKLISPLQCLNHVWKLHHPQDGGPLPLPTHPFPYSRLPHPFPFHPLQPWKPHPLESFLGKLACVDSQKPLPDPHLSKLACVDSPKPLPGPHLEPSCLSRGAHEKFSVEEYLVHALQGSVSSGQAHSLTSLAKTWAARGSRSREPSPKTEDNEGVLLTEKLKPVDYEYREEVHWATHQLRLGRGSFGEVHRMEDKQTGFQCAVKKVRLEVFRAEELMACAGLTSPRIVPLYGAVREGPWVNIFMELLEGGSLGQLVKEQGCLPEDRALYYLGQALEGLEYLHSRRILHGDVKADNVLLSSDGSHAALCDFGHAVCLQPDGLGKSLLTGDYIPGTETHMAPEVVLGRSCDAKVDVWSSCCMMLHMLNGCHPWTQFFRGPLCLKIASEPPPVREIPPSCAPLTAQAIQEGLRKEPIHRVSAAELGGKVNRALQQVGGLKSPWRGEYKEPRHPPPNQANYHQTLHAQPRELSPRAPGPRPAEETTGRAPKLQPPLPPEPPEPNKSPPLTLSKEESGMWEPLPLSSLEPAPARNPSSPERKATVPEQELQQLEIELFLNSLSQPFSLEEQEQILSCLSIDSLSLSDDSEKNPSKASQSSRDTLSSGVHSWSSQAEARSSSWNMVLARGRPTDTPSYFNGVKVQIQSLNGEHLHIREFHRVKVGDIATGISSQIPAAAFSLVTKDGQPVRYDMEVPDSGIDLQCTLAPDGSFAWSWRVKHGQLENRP

[2] = Oral bioavailability in ICR mouse; type: ADME, organism-based; conditions: in vivo
[3] = target: T1, Mitogen-activated protein kinase kinase kinase 14; test: Inhibition of human NIK using ATP as substrate by kinase-glo assay
[4] = target: Mitogen-activated protein kinase kinase kinase 14 (Mus musculus) (UniProt Q9WUL6); test: Inhibition of NIK in NIK/p100 adenoviruses infected C57BL/6 mouse primary hepatocytes assessed as suppression of NIK-mediated proteolysis of p100 to p52 by measuring reduction in p52 level at 5 uM measured after 16 hrs by Western blot analysis
Sequence of Mitogen-activated protein kinase kinase kinase 14 (Mus musculus) (Q9WUL6 whole entry): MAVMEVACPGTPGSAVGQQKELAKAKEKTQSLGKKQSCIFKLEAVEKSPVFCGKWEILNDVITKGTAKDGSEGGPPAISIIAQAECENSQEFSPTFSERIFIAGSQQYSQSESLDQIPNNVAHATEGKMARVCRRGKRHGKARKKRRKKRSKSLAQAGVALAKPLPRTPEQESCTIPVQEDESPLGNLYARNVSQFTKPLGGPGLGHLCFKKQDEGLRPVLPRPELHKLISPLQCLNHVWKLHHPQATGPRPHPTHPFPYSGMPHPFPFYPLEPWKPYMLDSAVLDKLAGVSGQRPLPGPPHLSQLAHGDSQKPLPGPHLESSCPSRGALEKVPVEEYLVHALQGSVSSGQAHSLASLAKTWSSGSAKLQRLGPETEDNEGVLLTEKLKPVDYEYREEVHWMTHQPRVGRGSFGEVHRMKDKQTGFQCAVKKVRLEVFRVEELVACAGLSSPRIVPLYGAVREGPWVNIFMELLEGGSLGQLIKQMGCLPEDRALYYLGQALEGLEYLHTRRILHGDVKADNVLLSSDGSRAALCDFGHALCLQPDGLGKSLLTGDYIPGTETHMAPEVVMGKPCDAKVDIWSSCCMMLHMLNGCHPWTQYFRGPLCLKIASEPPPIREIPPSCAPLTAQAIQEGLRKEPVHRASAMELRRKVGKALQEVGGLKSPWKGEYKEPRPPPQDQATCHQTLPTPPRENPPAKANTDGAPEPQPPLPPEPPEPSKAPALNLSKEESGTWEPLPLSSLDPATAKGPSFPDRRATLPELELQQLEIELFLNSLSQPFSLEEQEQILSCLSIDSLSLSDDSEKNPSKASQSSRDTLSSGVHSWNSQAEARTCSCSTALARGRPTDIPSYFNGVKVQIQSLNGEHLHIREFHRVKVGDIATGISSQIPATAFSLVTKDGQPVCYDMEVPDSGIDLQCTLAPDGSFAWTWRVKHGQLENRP

[5] = tested on: Hepatocyte; test: Down regulation of NIK expression in NIK/p100 adenoviruses infected C57BL/6 mouse primary hepatocytes at 5 uM measured after 16 hrs by Western blot analysis; type: functional, cell-based
[6] = tested on: Mus musculus; test: (§1) Antiinflammatory activity in CCl4-induced C57BL/6 mouse model of liver injury assessed as reduction in immune cell infiltration in liver at 25 mg/kg, po administered 30 mins prior to CCl4 addition followed by compound redosing at 3 hrs interval for 9 hrs and measured 12 hrs […] by F4/80/DAPI staining based immunofluorescence assay; type: functional, organism-based
[7] = Stability of the compound in pH 1 aqueous solution; type: physicochemical; conditions: buffer
[8] = target: T1, Mitogen-activated protein kinase kinase kinase 14; test: Binding affinity to wild-type human partial length NIK (L318 to P947 residues) expressed in mammalian expression system by Kinomescan method
[9] = target: Mitogen-activated protein kinase kinase kinase 14 (Mus musculus) (UniProt Q9WUL6); test: Inhibition of NIK in NIK/p100 adenoviruses infected C57BL/6 mouse primary hepatocytes assessed as suppression of NIK-mediated proteolysis of p100 to p52 by measuring reduction in p52 level measured after 16 hrs by Western blot analysis
[10] = tested on: Hepatocyte; test: Down regulation of NIK expression in NIK/p100 adenoviruses infected C57BL/6 mouse primary hepatocytes at 1 to 10 uM measured after 16 hrs by Western blot analysis; type: functional, cell-based
[11] = target: Mitogen-activated protein kinase kinase kinase 14 (Mus musculus) (UniProt Q9WUL6); test: Inhibition of NIK in NIK adenovirus infected C57BL/6 mouse primary hepatocytes assessed as reduction in TNFalpha mRNA expression measured after 16 hrs by SYBR staining based RT-qPCR analysis
[12] = target: Mitogen-activated protein kinase kinase kinase 14 (Mus musculus) (UniProt Q9WUL6); test: Inhibition of NIK in NIK adenovirus infected C57BL/6 mouse primary hepatocytes assessed as reduction in CCL2 mRNA expression measured after 16 hrs by SYBR staining based RT-qPCR analysis
[13] = target: Mitogen-activated protein kinase kinase kinase 14 (Mus musculus) (UniProt Q9WUL6); test: Inhibition of NIK in NIK adenovirus infected C57BL/6 mouse primary hepatocytes assessed as reduction in CCL5 mRNA expression measured after 16 hrs by SYBR staining based RT-qPCR analysis
[14] = target: Mitogen-activated protein kinase kinase kinase 14 (Mus musculus) (UniProt Q9WUL6); test: Inhibition of NIK in NIK adenovirus infected C57BL/6 mouse primary hepatocytes assessed as reduction in CXCL5 mRNA expression measured after 16 hrs by SYBR staining based RT-qPCR analysis
[15] = target: Mitogen-activated protein kinase kinase kinase 14 (Mus musculus) (UniProt Q9WUL6); test: Inhibition of NIK in NIK adenovirus infected C57BL/6 mouse primary hepatocytes assessed as reduction in NOS2 mRNA expression measured after 16 hrs by SYBR staining based RT-qPCR analysis
[16] = Half life in ICR mouse at 5 mg/kg, iv by LC-MS/MS analysis; type: ADME, organism-based; conditions: in vivo
[17] = Tmax in ICR mouse at 5 mg/kg, iv by LC-MS/MS analysis; type: ADME, organism-based; conditions: in vivo
[18] = Cmax in ICR mouse at 5 mg/kg, iv by LC-MS/MS analysis; type: ADME, organism-based; parameters: dose 5 mg/kg, route intravenous; conditions: in vivo
[19] = AUC (0 to t) in ICR mouse at 5 mg/kg, iv by LC-MS/MS analysis; type: ADME, organism-based; conditions: in vivo
[20] = Apparent volume of distribution in ICR mouse at 5 mg/kg, iv by LC-MS/MS analysis; type: ADME, organism-based; conditions: in vivo, read-out: Vz
[21] = Clearance in ICR mouse at 5 mg/kg, iv by LC-MS/MS analysis; type: ADME, organism-based; conditions: in vivo
[22] = Half life in ICR mouse at 15 mg/kg, po by LC-MS/MS analysis; type: ADME, organism-based; conditions: in vivo
[23] = Tmax in ICR mouse at 15 mg/kg, po by LC-MS/MS analysis; type: ADME, organism-based; conditions: in vivo
[24] = Cmax in ICR mouse at 15 mg/kg, po by LC-MS/MS analysis; type: ADME, organism-based; parameters: dose 15 mg/kg, route oral; conditions: in vivo
[25] = AUC (0 to t) in ICR mouse at 15 mg/kg, po by LC-MS/MS analysis; type: ADME, organism-based; conditions: in vivo
[26] = Oral bioavailability in ICR mouse at 15 mg/kg by LC-MS/MS analysis; type: ADME, organism-based; conditions: in vivo
[27] = tested on: Mus musculus; test: Antiinflammatory activity in CCl4-induced C57BL/6 mouse model of liver injury assessed as reduction in serum ALT level at 40 mg/kg, po administered 30 mins prior to CCl4 addition followed by compound redosing at 3 hrs interval for 9 hrs and measured 12 hrs […]; type: functional, organism-based
[28] = tested on: Mus musculus; test: (§2) Antiinflammatory activity in CCl4-induced C57BL/6 mouse model of liver injury assessed as reduction in TNFalpha mRNA expression in liver at 40 mg/kg, po administered 30 mins prior to CCl4 addition followed by compound redosing at 3 hrs interval for 9 hrs and measured 12 hrs […] by SYBR staining based RT-qPCR analysis; type: functional, organism-based
[29] = tested on: Mus musculus; test: as §2, with “NOS2” for “TNFalpha”; type: functional, organism-based
[30] = tested on: Mus musculus; test: as §2, with “CCL5” for “TNFalpha”; type: functional, organism-based
[31] = tested on: Mus musculus; test: as §2, with “CXCL5” for “TNFalpha”; type: functional, organism-based
[32] = tested on: Mus musculus; test: as §2, with “CCL2” for “TNFalpha”; type: functional, organism-based
[33] = tested on: Mus musculus; test: as §1, with “40” for “25”; type: functional, organism-based

Compound: COc1cc(C#CC(C)(O)c2nccs2)cc(-c2c[nH]c3cnc(N)nc23)c1 (stereo not given)
- IC50 [1]: 290 nM

Compound: CC(C)(O)C#Cc1cccc(-c2c[nH]c3cnc(N)nc23)c1
- IC50 [1]: 720 nM

Compound: CC(O)(C#Cc1cc(F)cc(-c2c[nH]c3cnc(N)nc23)c1)c1nccs1 (stereo not given)
- IC50 [1]: 319 nM

Compound: COCCOc1ccc(-n2ccc3cnc(N)nc32)cc1C#CC(C)(O)c1nccs1 (stereo not given)
- IC50 [1]: 25800 nM

Compound: CN1CCC(O)(C#Cc2cc(-n3ccc4cnc(N)nc43)ccn2)C1=O (stereo not given)
- IC50 [1]: 26.1 nM
- bioavailability [2]: < 1%

Compound: CN1CCCC(O)(C#Cc2cc(-n3ccc4cnc(N)nc43)ccn2)C1=O (stereo not given)
- IC50 [1]: 25.7 nM

Compound: C[C@@](O)(C#Cc1ccc2c(c1)N(c1nc(N)ncc1Cl)CC2)c1nccs1
- IC50 [3]: 4.2 nM
- IC50 [1]: 15.1 nM
- inhibition [4]: Active
- Activity [5]: inactive
- Activity [6]: Active

Compound: CC(O)(C#Cc1cncc(-n2ccc3cnc(N)nc32)c1)c1nccs1 (stereo not given)
- IC50 [1]: 1860 nM

Compound: Cc1ccc(C#CC(C)(O)c2nccs2)cc1-n1ccc2cnc(N)nc21 (stereo not given)
- IC50 [1]: 335 nM

Compound: CCC(O)(C#Cc1cc(-n2ccc3cnc(N)nc32)ccn1)c1nccs1 (stereo not given)
- IC50 [1]: 2290 nM

Compound: CCc1nc(N)nc2c1ccn2-c1ccnc(C#CC2(O)CCN(C)C2=O)c1 (stereo not given)
- IC50 [1]: 190 nM

Compound: CC(O)(C#Cc1ccc(-n2ccc3cnc(N)nc32)cc1)c1nccs1 (stereo not given)
- IC50 [1]: 3840 nM

Compound: COc1cccc(C(C)(O)C#Cc2cccc(-c3c[nH]c4cnc(N)nc34)c2)n1 (stereo not given)
- IC50 [1]: > 10000 nM

Compound: C[C@@](O)(C#Cc1ccc(F)c(-c2c[nH]c3cnc(N)nc23)c1)c1nccs1
- IC50 [1]: 9.1 nM
- Stability [7]: Stable
- Kd [8]: 4.9 nM
- inhibition [9]: Dose-dependent effect
- Activity [10]: inactive
- inhibition [11]: Dose-dependent effect
- inhibition [12]: Dose-dependent effect
- inhibition [13]: Dose-dependent effect
- inhibition [14]: Dose-dependent effect
- inhibition [15]: Dose-dependent effect
- half-life [16]: 197 min
- Tmax [17]: 4.8 min
- Cmax [18]: 3040 ng/mL
- AUC(0-t) [19]: 891 ng·h/mL
- Vd [20]: 26 L/kg
- clearance [21]: 92.4 mL/min/kg
- half-life [22]: 720 min
- Tmax [23]: 18 min
- Cmax [24]: 510 ng/mL
- AUC(0-t) [25]: 348 ng·h/mL
- bioavailability [26]: 13%
- Activity [27]: Active
- Activity [28]: Active
- Activity [29]: Active
- Activity [30]: Active
- Activity [31]: Active
- Activity [32]: Active
- Activity [33]: Active

Compound: CN(C)C(=O)C(C)(O)C#Cc1cccc(-c2c[nH]c3cnc(N)nc23)c1 (stereo not given)
- IC50 [1]: > 10000 nM

Compound: CC(O)(C#Cc1cccc(-c2c[nH]c3cnc(N)nc23)c1)c1nccs1 (stereo not given)
- IC50 [1]: 218 nM

Compound: Nc1ncc2ccn(-c3ccnc(C#CC4(O)CCNCC4)c3)c2n1
- IC50 [1]: > 10000 nM

The remaining lines, values ahead:

- IC50 [1]: > 10000 nM
Compound: CNc1ccc(-n2ccc3cnc(N)nc32)cc1C#CC(C)(O)c1nccs1 (stereo not given)

- IC50 [1]: 234 nM
Compound: Nc1ncc2ccn(-c3ccnc(C#CC4(O)CCCC4)c3)c2n1

- IC50 [1]: 1640 nM
Compound: CC(O)(C#Cc1cc(-n2ccc3cnc(N)nc32)ccn1)c1cnccn1 (stereo not given)

- IC50 [1]: > 10000 nM
Compound: CN(C)CCOc1ccc(-n2ccc3cnc(N)nc32)cc1C#CC(C)(O)c1nccs1 (stereo not given)

- IC50 [1]: 216 nM
Compound: COc1ccc(C#CC(C)(O)c2nccs2)cc1-n1ccc2cnc(N)nc21 (stereo not given)

- IC50 [1]: > 10000 nM
Compound: CN(C)C(=O)c1ccc(-n2ccc3cnc(N)nc32)cc1C#CC(C)(O)c1nccs1 (stereo not given)

- IC50 [1]: 388 nM
Compound: Nc1ncc2ccn(-c3ccnc(C#CC4(O)CCC4)c3)c2n1

- IC50 [1]: 2480 nM
Compound: COc1nc(N)nc2c1ccn2-c1cccc(C#CC(C)(O)c2nccs2)c1 (stereo not given)

- IC50 [1]: 303 nM
Compound: CC(O)(C#Cc1cccc(-n2ccc3cnc(N)nc32)c1)c1nccs1 (stereo not given)

- IC50 [1]: 85.2 nM
Compound: Cc1nc(N)nc2c1ccn2-c1ccnc(C#CC2(O)CCN(C)C2=O)c1 (stereo not given)

- IC50 [1]: 10900 nM
Compound: CC(O)(C#Cc1cccc(-c2c[nH]c3cnc(N)nc23)c1F)c1nccs1 (stereo not given)
